Measured values taken from patent US12097199B2, “Administration of SUMO-activating enzyme inhibitor and anti-CD20 antibodies” (Takeda Pharmaceutical Company Limited, priority 2018, dated 2024).

Columns and labels:
[1] = test system: OCI-Ly10 human diffuse large B-cell lymphoma xenograft; assay: Study 1: OCI-Ly10 xenograft model, in vivo tumor efficacy; set-up: species or system SCID mice; settings: for TGI %: Day 21; for dAUC: unit assumed
Protocol: OCI-Ly 10 Study 1: OCI-Ly 10 is a human diffuse large B-cell lymphoma cell-line derived xenograft. 6 week old female SCID mice (Beijing HFK Bioscience Co., Ltd.) were inoculated subcutaneously in the right flank (cell suspension) with 4×10^6 OCI-Ly10 cells. When the mean tumor volume reached approximately 200 mm^3, the animals were randomized into treatment and control groups (n=7/group). Tumor growth inhibition and body weight change were calculated on Day 21 of treatment.
(§1) Final doses received were 25 mg/kg or 15 mg/kg, respectively.
(§2) Tumors were measured twice weekly using vernier calipers. Tumor volumes were calculated using standard procedures V=W^2×L/2, where V=volume, W=width, and L=length for the tumor xenograft. […] Tumor size and body weight were measured twice a week for the duration of the study. Mice were euthanized when the average tumor volume of a treatment or control group reached approximately 1000 mm^3 or when an individual tumor exceeded the humane end-point for size.
(§3) These values were compared across treatment groups to assess whether the differences in the trends over time were statistically significant. To compare pairs of treatment groups, the following mixed-effects linear regression model was fit to the data using the maximum likelihood method: Yijk−Yi0k=Yi0k+treati+dayi+dayj^2+(treat*day)ij+(treat*day^2)ij+eijk (1) where Yijk is the log10 tumor value at the j^th time point of the k^th animal in the i^th treatment, Yi0k is the day 0 (baseline) log10 tumor value in the k^th animal in the i^th treatment, day, was the median-centered time point and (along with dayj^2) was treated as a continuous variable, and eijk is the residual error. A spatial power law covariance matrix was used to account for the repeated measurements on the same animal over time. Interaction terms as well as dayj^2 terms were removed if they were not statistically significant.
(§4) The predicted differences in the log tumor values (Yijk−Yi0k, which can be interpreted as log10 (fold change from day 0)) were taken from the above models to calculate mean AUC values for each treatment group. A dAUC value was then calculated as: […]
(§5) For synergy analyses, the observed differences in the log tumor values were used to calculate AUC values for each animal. […] The AUC for the control, or vehicle, group was calculated using the predicted values from the pairwise models described above. We defined a measure of synergy as follows:
(§6) The effect was classified into four different categories. It was considered synergistic if the synergy score was less than 0 and additive if the synergy score wasn't statistically different from 0.
(§7) One group served as the vehicle-treated group (Group 1) receiving IV treatment with the vehicle for I-263a (20% HPβCD) on a QW schedule.

[2] = test system: OCI-Ly10 human diffuse large B-cell lymphoma xenograft; assay: Study 2: OCI-Ly10 xenograft model, in vivo tumor efficacy; set-up: species or system SCID mice; settings: for TGI %: Day 21
Protocol: OCI-Ly10 Study 2: OCI-Ly 10 is a human diffuse large B-cell lymphoma cell-line derived xenograft. 8 week old female SCID mice (Beijing HFK Bioscience Co., Ltd.) were inoculated subcutaneously in the right flank (cell suspension) with 4×10^6 OCI-Ly 10 cells. When the mean tumor volume reached approximately 200 mm^3, the animals were randomized into treatment and control groups (n=8/group). Tumor growth inhibition and body weight change were calculated on Day 21 of treatment.
Final doses received were 10 mg/kg or 5 mg/kg, respectively.
as §2, §3, §4, §5, §6
(§8) In the OCI-Ly 10 diffuse large B-cell lymphoma xenograft model, mice were inoculated, randomized on Day 0 (30 days post inoculation), and treatments began on Day 1 for all groups. […] One group served as the vehicle-treated group (Group 1) receiving IV treatment with the vehicle for I-263a (20% HPβCD) on a QW schedule.

[3] = test system: WSU-DLCL2 human diffuse large B-cell lymphoma xenograft; assay: Study 3: WSU-DLCL2 xenograft model, in vivo tumor efficacy; set-up: species or system SCID mice
Protocol: WSU-DLCL2 Study 3: WSU-DLCL2 is a human diffuse large B-cell lymphoma cell-line derived xenograft. 7 week old female SCID mice (Charles River Laboratories) were inoculated subcutaneously in the right flank (cell suspension with 4.0×10^6 cells). When the mean tumor volume reached approximately 200 mm^3, the animals were randomized into treatment groups and control groups (n=8/group). Tumor growth inhibition and body weight change were calculated on Day 21 of treatment. Tumor volumes below the humane end-point for size were continually monitored following the end of treatment (post-treatment period) for an additional week.
as §2, §3, §4, §5, §6
as §8, with “WSU-DLCL2” for “OCI-Ly 10”, “(8” for “(30”

[4] = test system: TMD8 human diffuse large B-cell lymphoma xenograft; assay: Study 4: TMD8 xenograft model, in vivo tumor efficacy; set-up: species or system SCID mice; settings: for TGI %: Day 18
Protocol: TMD8 Study 4: TMD8 is a human diffuse large B-cell lymphoma cell-line derived xenograft. 8 week old female SCID mice (Beijing HFK Bioscience Co., Ltd) were inoculated subcutaneously in the right flank (cell suspension with 4×10^6 cells). When the mean tumor volume reached approximately 190 mm^3, the animals were randomized into treatment groups and control groups (n=8/group). Tumor growth inhibition and body weight change were calculated on Day 18 of treatment. Tumor volumes below the humane end-point for size were continually monitored following the end of treatment (post-treatment period) for an additional week.
as §1, §2, §3, §4, §5, §6
as §8, with “TMD8” for “OCI-Ly 10”, “(10” for “(30”

[5] = test system: PHTX-166L human patient-derived B-cell lymphoma primary xenograft; assay: Study 5: PHTX-166L primary xenograft model, in vivo tumor efficacy; set-up: species or system mice; settings: for TGI %: Day 11
Protocol: PHTX-166L Study 5: PHTX-166L is a human patient-derived B-cell lymphoma primary xenograft. Small tumor pieces measuring approximately 2 mm×2 mm were implanted subcutaneousy on the right flank via trocar injection. When the mean tumor volume reached approximately 160 mm^3, the animals were randomized into treatment groups and control groups (n=7/group). Tumor growth inhibition and body weight change were calculated on Day 11 of treatment. Tumor volumes below the humane end-point for size were continually monitored following the end of treatment (post-treatment period) until Day 146 post treatment initiation.
as §2, §3, §4, §5, §6
as §8, with “PHTX-166L patient-derived primary” for “OCI-Ly 10 diffuse large”, “(24” for “(30”

[6] = test system: PHTX-166L human patient-derived primary B-cell lymphoma xenograft; assay: Study 6: PHTX-166L primary xenograft model, in vivo tumor efficacy; set-up: species or system mice
Protocol: Small tumor pieces measuring approximately 2 mm×2 mm were implanted subcutaneousy on the right flank via trocar injection.
as §2, §3, §4, §5, §6, §7

SUMO-activating enzyme = SUMO-activating enzyme (Homo sapiens, UniProt Q9UBT2); assay: Biochemical assays of SUMO-activating enzyme inhibition
Chain of SUMO-activating enzyme (Q9UBT2 whole entry): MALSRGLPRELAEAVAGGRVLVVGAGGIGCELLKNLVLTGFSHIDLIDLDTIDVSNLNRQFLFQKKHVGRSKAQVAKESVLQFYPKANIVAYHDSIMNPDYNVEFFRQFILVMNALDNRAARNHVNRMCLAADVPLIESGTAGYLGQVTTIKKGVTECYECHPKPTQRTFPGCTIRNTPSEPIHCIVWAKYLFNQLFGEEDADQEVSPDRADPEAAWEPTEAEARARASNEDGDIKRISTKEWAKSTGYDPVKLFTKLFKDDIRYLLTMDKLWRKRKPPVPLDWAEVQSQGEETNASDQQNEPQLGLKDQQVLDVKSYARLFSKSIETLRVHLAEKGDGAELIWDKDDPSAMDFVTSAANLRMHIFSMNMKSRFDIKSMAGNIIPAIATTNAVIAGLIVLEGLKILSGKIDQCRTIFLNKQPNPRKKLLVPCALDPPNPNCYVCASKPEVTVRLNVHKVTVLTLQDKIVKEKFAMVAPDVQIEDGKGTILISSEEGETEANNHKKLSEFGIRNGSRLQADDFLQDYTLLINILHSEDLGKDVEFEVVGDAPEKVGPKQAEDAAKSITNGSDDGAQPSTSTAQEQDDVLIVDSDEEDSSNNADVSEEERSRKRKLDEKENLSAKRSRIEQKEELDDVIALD
Chain of SUMO-activating enzyme (Q9UBE0 whole entry partner): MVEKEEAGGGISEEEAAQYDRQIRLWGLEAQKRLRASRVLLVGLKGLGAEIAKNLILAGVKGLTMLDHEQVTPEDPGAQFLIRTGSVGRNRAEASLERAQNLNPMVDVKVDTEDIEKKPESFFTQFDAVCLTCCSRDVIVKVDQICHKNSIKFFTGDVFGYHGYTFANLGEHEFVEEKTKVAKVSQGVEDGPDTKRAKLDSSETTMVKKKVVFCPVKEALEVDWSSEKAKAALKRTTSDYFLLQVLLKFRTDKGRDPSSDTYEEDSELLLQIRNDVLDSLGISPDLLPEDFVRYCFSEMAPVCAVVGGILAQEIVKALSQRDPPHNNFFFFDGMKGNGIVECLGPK
Chain of SUMO-activating enzyme (P63165 1-97 partner limits assumed): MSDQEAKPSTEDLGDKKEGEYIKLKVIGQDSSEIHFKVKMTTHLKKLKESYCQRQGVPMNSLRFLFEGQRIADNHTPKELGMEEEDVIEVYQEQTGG
Text: (§9) SAE inhibitors, as disclosed herein, are described, for example, in US 2016/0009744 and U.S. Pat. No. 9,695,154. They may be prepared by methods known to one skilled in the art and/or according to the methods described in US 2016/0009744 and U.S. Pat. No. 9,695,154, which is hereby incorporated by reference in its entirety. Central to the mechanism of action of useful SAE inhibitors, such as Compound I-263a, in combinations and methods of the present disclosure is production of type 1 IFNs and induction of an innate immune response with activation of both natural killer (NK) cells and macrophages.

[7] = test system: SUMO-activating enzyme and SUMOylation; assay: Inhibition of SAE and SUMOylation in cultured tumor cell lines; type: cell-based; settings: cultured mouse and human tumor cell lines
Text: as §9

[8] = single-agent I-263a (25 and 15 mg/kg)
[9] = Group C: I-263a 12.5 mg/kg IV QW
[10] = Group B: I-263a 5.0 mg/kg IV QW

Cc1sc(C(=O)c2cncnc2N[C@@H]2C[C@H](COS(N)(=O)=O)[C@@H](O)C2)cc1[C@@H]1NCCc2ccc(Cl)cc21 [Compound I-263a, [(1R,2S,4R)-4-{[5-({4-[(1R)-7-chloro-1,2,3,4-tetrahydroisoquinolin-1-yl]-5-methyl-2-thienyl}carbonyl)pyrimidin-4-yl]amino}-2-hydroxycyclopentyl]methyl sulfamate]
Days to 1000 mm^3 MTV ([1]; Group B: I-263a 25 mg/kg IV QW): 39 days | Tumor volume on Day 21 (±SEM) ([1]; Group B: I-263a 25 mg/kg IV QW): 409.7 ± 19.2 mm^3 | TGI % ([1]; Group B: I-263a 25 mg/kg IV QW): 31.3% | dAUC ([1]; Group B: I-263a 25 mg/kg IV QW): 23.6% | Days to 1000 mm^3 MTV ([1]; Group C: I-263a 15 mg/kg IV QW): 37.6 days | Tumor volume on Day 21 (±SEM) ([1]; Group C: I-263a 15 mg/kg IV QW): 443.7 ± 12.3 mm^3 | TGI % ([1]; Group C: I-263a 15 mg/kg IV QW): 25.6% | dAUC ([1]; Group C: I-263a 15 mg/kg IV QW): 21.4% | Day by which all mice were euthanized (group reached 1000 mm^3 or humane end-point for size) [1, 8]: ≤ 120 days | Days to 1000 mm^3 MTV ([2]; Group B: I-263a 10 mg/kg IV QW): 32.1 days | Tumor volume on Day 21 (±SEM) ([2]; Group B: I-263a 10 mg/kg IV QW): 706.9 ± 51.3 mm^3 | dAUC ([2]; Group B: I-263a 10 mg/kg IV QW): 25.6 | TGI % ([2]; Group B: I-263a 10 mg/kg IV QW): 41.3% | Days to 1000 mm^3 MTV ([2]; Group C: I-263a 5 mg/kg IV QW): 28.7 days | Tumor volume on Day 21 (±SEM) ([2]; Group C: I-263a 5 mg/kg IV QW): 759.3 ± 33.2 mm^3 | dAUC ([2]; Group C: I-263a 5 mg/kg IV QW): 26.8 | TGI % ([2]; Group C: I-263a 5 mg/kg IV QW): 37% | Day by which all mice were euthanized (group reached 1000 mm^3 or humane end-point for size) ([2]; single-agent I-263a (10 and 5 mg/kg)): ≤ 35 days | Days to 1000 mm^3 MTV ([3]; Group B: I-263a 5 mg/kg IV QW): 17.2 days | Tumor volume on Day 21 (±SEM) ([3]; Group B: I-263a 5 mg/kg IV QW): 1340.3 ± 188.1 mm^3 | dAUC ([3]; Group B: I-263a 5 mg/kg IV QW): 28.1 | TGI % ([3]; Group B: I-263a 5 mg/kg IV QW, Day 21): 37.6% | Day by which all mice were euthanized (group reached 1000 mm^3 or humane end-point for size) ([3]; single-agent I-263a 5 mg/kg): ≤ 24 days | Days to 1000 mm^3 MTV ([4]; Group B: I-263a 25 mg/kg IV QW): 14.1 days | Tumor volume on Day 18 (±SEM) ([4]; Group B: I-263a 25 mg/kg IV QW): 1297.4 ± 120.2 mm^3 | dAUC ([4]; Group B: I-263a 25 mg/kg IV QW): 13.6 | TGI % ([4]; Group B: I-263a 25 mg/kg IV QW): 27.8% | Days to 1000 mm^3 MTV ([4]; Group C: I-263a 15 mg/kg IV QW): 12.8 days | Tumor volume on Day 18 (±SEM) ([4]; Group C: I-263a 15 mg/kg IV QW): 1604.1 ± 144.7 mm^3 | dAUC ([4]; Group C: I-263a 15 mg/kg IV QW): 10.1 | TGI % ([4]; Group C: I-263a 15 mg/kg IV QW): 10.7% | Day by which all mice were euthanized (group reached 1000 mm^3 or humane end-point for size) [4, 8]: ≤ 120 days | Days to 1000 mm^3 MTV ([5]; Group B: I-263a 25 mg/kg IV QW): >18 days | dAUC ([5]; Group B: I-263a 25 mg/kg IV QW): 45.0 | Tumor volume on Day 11 (±SEM) ([5]; Group B: I-263a 25 mg/kg IV QW (Days 1 and 8)): 540.2 ± 58.5 mm^3 | TGI % ([5]; Group B: I-263a 25 mg/kg IV QW): 72% | Days to 1000 mm^3 MTV [5, 9]: 13.2 days | dAUC [5, 9]: 35.4 | Tumor volume on Day 11 (±SEM) ([5]; Group C: I-263a 12.5 mg/kg IV QW (Days 1 and 8)): 758.2 ± 104.7 mm^3 | TGI % [5, 9]: 60.6% | Days to 1000 mm^3 MTV [6, 10]: 9.1 days | dAUC [6, 10]: 34.3 | Tumor volume on Day 9 (±SEM) ([6]; Group B: I-263a 5.0 mg/kg IV QW (Days 1 and 8)): 992.2 ± 115.2 mm^3 | TGI % ([6]; Group B: I-263a 5.0 mg/kg IV QW, Day 9): 51.4% | Inhibition of SUMO-activating enzyme activity (SUMO-activating enzyme; mechanism-based inhibitor forming a covalent adduct with SUMO): potently inhibits enzyme activity | Selectivity for SUMO-activating enzyme (SUMO-activating enzyme; over ubiquitin-activating enzyme, Nedd8-activating enzyme, and autophagy related 7 enzyme): Strong selectivity | Inhibition of SUMO-activating enzyme and SUMOylation in cells [7]: Selective and potent inhibition
